Laboratory results taken from patent publication US12054497B2, “Substituted heterocyclic fused cyclic compound, preparation method therefor and pharmaceutical use thereof” (GENFLEET THERAPEUTICS (SHANGHAI) INC., priority 2019, dated 2024).

Assays:
Format in all cases: cell-based, human
[1] = tested on: A549 cells with Kras G12S mutation; assay: Cell proliferation inhibition experiment, 3D spheroid, CellTiter-Glo (Test Example 1); conditions: Homo sapiens, A549, 120 h, 5 days
Experimental: (§1) NCI-H358 was a human NSCLC cell line with Kras G12C mutation, which was cultured in a RPMI-1640 medium with 10% fetal bovine serum (FBS). A549 was a human lung adenocarcinoma cell line with Kras G12S mutation, which was cultured in an F-12K medium with 10% FBS. Cells in logarithmic growth phase were detached with trypsin and EDTA, collected and counted, and H358 was regulated to 1.8E4 cells/ml by using an RPMI-1640 medium with 2% FBS, while A549 was regulated to 8.9E3 cells/ml with an F-12K medium containing 2% FBS. 800 (45 μl) H358 cells and 400 (45 μl) A549 cells were seeded to 384-well spheroid plates, respectively, and cultured overnight to establish 3D cell models. 1000× stock solutions of compounds at a concentration gradient of 3.16 were prepared by using DMSO, and diluted 100 times by the medium with 2% FBS into 10× stock solutions of compounds. On the day after cell seeding, 5 μl of 10× stock solution of a compound was added to each well of cell culture plate, with a final concentration being 1× and a DMSO content of 0.1%. DMSO was used as the control, and the medium with 2% FBS was used as blank control group. After 5 days of cell culture with the compound, 25 μl of CellTiter-Glo working solution was added to each well, and mixed uniformly at 400 rpm and incubation for 30 minutes. After standing at room temperature for 30 minutes, 40 μl of mixed solution was transferred to a 384-well plate with white clear bottom. A value of luminescence was then read, and a cell proliferation inhibition rate (IR) (%)=(RLU control-RLU compound)/(RLU control−RLU blank)×100%. The value of IC50 was calculated by fitting a gradiently diluted concentration of the compound and the corresponding cell proliferation inhibition rate using a Prism 6 four-parameter method.

[2] = tested on: NCI-H358 cells with Kras G12C mutation; assay: as above; conditions: Homo sapiens, NCI-H358, 120 h, 5 days
Experimental: as §1

[3] = tested on: phosphorylated ERK in MIA PaCa2 cells with Kras G12C mutation; assay: p-ERK HTRF assay for cells (Test Example 2); conditions: Homo sapiens, MIA PaCa-2, 2 h, MIA PaCa2 cells, 2 hours with compound; read-out: p-ERK IC50
Experimental: MIA PaCa2 was a human pancreatic carcinoma cell line with Kras G12C mutation, which was cultured in a DMEM with 10% FBS and 2.5% Horse serum. Cells in logarithmic growth phase were detached with trypsin and EDTA, collected and counted, and 2.5E4 cells were seeded to a 96-well cell culture plate and cultured overnight. 1000× stock solutions of compounds at a concentration gradient of 3.16 were prepared by using DMSO, and diluted 200 times by the medium into 5× stock solutions of compounds. On the day after cell seeding, 5× stock solution of a compound was added to each well of cell culture plate, with a final concentration being 1× and a DMSO content of 0.1%. DMSO was used as the control. The residual culture was removed after culturing for 2 hours with the compound. To each well, 50 ul of cell lysis buffer was added and mixed uniformly and incubation for 30 minutes. Subsequently, 16 ul of mixed solution was transferred to a 96-well plate with white unclear bottom, and 16 ul of cell lysis buffer was added to the blank control group. After the completion of transfer, 4 ul of p-ERK HTRF antibody mixture was added to each well, and a value of fluorescence intensity was read after incubation for 4 hours. The inhibition rate (IR) of the compound was calculated by the following equation: IR (%)=(RLU control-RLU compound)/(RLU control−RLU blank)×100%. The value of IC50 was calculated by fitting a gradiently diluted concentration of the compound and the corresponding cell proliferation inhibition rate using a Prism 8 four-parameter method.

[4] = tested on: MIA PaCa-2 cells with Kras G12C mutation; assay: Cell proliferation inhibition experiment, 3D spheroid, CellTiter-Glo (Test Example 3); conditions: Homo sapiens, MIA PaCa-2, 120 h, 5 days, read-out: MIA-PaCa2 IC50
Experimental: MIA PaCa-2 was a human pancreatic carcinoma cell line with Kras G12C mutation, which was cultured in a DMEM with 10% FBS and 2.5% Horse serum. A549 was a human lung adenocarcinoma cell line with Kras G12S mutation, which was cultured in an F-12K medium with 10% FBS. Cells in logarithmic growth phase were detached with trypsin and EDTA, collected and counted, and 200 MIA PaCa-2 cells and 400 A549 cells were seeded to 384-well spheroid plates, respectively, and cultured overnight to establish 3D cell models. 1000× stock solutions of compounds at a concentration gradient of 3.16 were prepared by using DMSO, and diluted 100 times by the medium into 10× stock solutions of compounds. On the day after cell seeding, 10× stock solution of a compound was added to each well of cell culture plate, with a final concentration being 1× and a DMSO content of 0.1%. DMSO was used as the control, and the medium was used as the blank. After 5 days of cell culture with the compound, 30 μl of CellTiter-Glo working solution was added to each well, and mixed uniformly and incubation for 30 minutes. After standing at room temperature for 30 minutes, 40 μl of mixed solution was transferred to a 384-well plate with white unclear bottom. A value of luminescence intensity was then read, and a cell proliferation inhibition rate (IR) (%)=(RLU control−RLU compound)/(RLU control−RLU blank)×100%. The value of IC50 was calculated by fitting a gradiently diluted concentration of the compound and the corresponding cell proliferation inhibition rate using an XLFit four-parameter method.

In the case of `C=CC(=O)N1C[C@@H]2COc3c(c4cc(F)c(-c5c(O)cccc5F)nc4n(-c4c(C)ccnc4C(C)C)c3=O)N2C[C@H]1C` [Compound Z3, (6aR,9R)-8-acryloyl-3-fluoro-2-(2-fluoro-6-hydroxyphenyl)-13-(2-isopropyl-4-methylpyridin-3-yl)-9-methyl-6,6a,7,8,9,10-hexahydropyrazino[1′,2′:4,5][1,4]oxopyrazino[3,2-c][1,8]naphthyridin-12(13H)-one], the IC50 [1] is reported as > 10000 nM, the IC50 [2] is reported as 16 nM and the IC50 [3] is reported as 160 nM. The IC50 [4] was 18 nM.
`C=CC(=O)N1C[C@@H]2COc3c(c4cc(F)c(-c5c(F)cccc5OC)nc4n(-c4c(C)ccnc4C(C)C)c3=O)N2C[C@H]1C` [Compound Z3a, (2R,4aR)-3-acryloyl-11-fluoro-10-(2-fluoro-6-methoxyphenyl)-8-(2-isopropyl-4-methylpyridin-3-yl)-2-methyl-1,2,3,4,4a,5-hexahydropyrazino[1′,2′:4,5][1,4]oxopyrazino[2,3-c][1,8]naphthyridin-7(8H)-one] was tested, and the IC50 [1] was > 10000 nM, the IC50 [2] was 17 nM and the IC50 [3] was 273 nM. The IC50 [4] was 70 nM.
Compound `C=CC(=O)N1CCN2c3c(c(=O)n(-c4c(C)ccnc4C(C)C)c4nc(-c5c(O)cccc5F)c(Cl)cc34)OC[C@H]2C1` [Compound Z6, (4aR)-3-acryloyl-11-chloro-10-(2-fluoro-6-hydroxyphenyl)-8-(2-isopropyl-4-methylpyridin-3-yl)-1,2,3,4,4a,5-hexahydropyrazino[1′,2′:4,5][1,4]oxazino[2,3-c][1,8]naphthyridin-7(8H)-one] has an IC50 [1] of 11300 nM, an IC50 [2] of 35 nM and an IC50 [3] of 313 nM. It also gave an IC50 [4] of 85 nM.
In the case of `C=CC(=O)N1C[C@@H]2C(=O)N(C)c3c(c4cc(F)c(-c5c(O)cccc5F)nc4n(-c4c(C(C)C)ncnc4C(C)C)c3=O)N2C[C@H]1C` [Compound Z40, (2R,4aR)-3-acryloyl-8-(4,6-diisopropylpyrimidin-5-yl)-11-fluoro-10-(2-fluoro-6-hydroxyphenyl)-2,6-dimethyl-2,3,4,4a,6,8-hexahydro-1H-pyrazino[1′,2′:4,5]pyrazino[2,3-c][1,8]naphthyridin-5,7-dione], the IC50 [1] is reported as > 30000 nM, the IC50 [2] is reported as 11 nM and the IC50 [3] is reported as 78 nM. It also gave an IC50 [4] of 12 nM.
`C=CC(=O)N1CCN2c3c(c(=O)n(-c4c(C(C)C)ncnc4C(C)C)c4nc(-c5c(O)cccc5F)c(F)cc34)N(C)C(=O)[C@H]2C1` [Compound Z41, (4aR)-3-acryloyl-8-(4,6-diisopropylpyrimidin-5-yl)-11-fluoro-10-(2-fluoro-6-hydroxyphenyl)-6-methyl-2,3,4,4a,6,8-hexahydro-1H-pyrazino[1′,2′:4,5]pyrazino[2,3-c][1,8]naphthyridin-5,7-dione] was tested, and the IC50 [1] was > 30000 nM, the IC50 [2] was 17 nM and the IC50 [3] was 279 nM. For the same compound, the IC50 [4] was 44 nM.
`C=CC(=O)N1CCN2c3c(c(=O)n(-c4c(C)ccnc4C(C)C)c4nc(-c5c(O)cccc5F)c(F)cc34)NC(=O)CC2C1` (centres unmarked) [Compound Z42, 3-acryloyl-12-fluoro-11-(2-fluoro-6-hydroxyphenyl)-9-(2-isopropyl-4-methylpyridin-3-yl)-1,2,3,4,4a,5,7,9-octahydropyrazino[1′,2′:4,5][1,4]diaza[2,3-c][1,8]naphthyridin-6,8-dione] was tested, and the IC50 [1] was > 30000 nM, the IC50 [2] was 53 nM and the IC50 [3] was 566 nM. It also gave an IC50 [4] of 128 nM.
In the case of `C=CC(=O)N1CCN2c3c(c(=O)n(-c4c(C)ccnc4C(C)C)c4nc(-c5c(O)cccc5F)c(F)cc34)N(C)C(=O)CC2C1` (centres unmarked) [Compound Z43, 3-acryloyl-12-fluoro-11-(2-fluoro-6-hydroxyphenyl)-9-(2-isopropyl-4-methylpyridin-3-yl)-7-methyl-1,2,3,4,4a,5,7,9-octahydropyrazino[1′,2′:4,5][1,4]diaza[2,3-c][1,8]naphthyridin-6,8-dione], the IC50 [1] is reported as 29200 nM, the IC50 [2] is reported as 49 nM and the IC50 [3] is reported as 439 nM. For the same compound, the IC50 [4] was 220 nM.
With `[2H]C([2H])([2H])N1C(=O)[C@H]2CN(C(=O)C=C)[C@H](C)CN2c2c1c(=O)n(-c1c(C(C)C)ncnc1C(C)C)c1nc(-c3c(O)cccc3F)c(F)cc21` [Compound Z44, (2R,4aR)-3-acryloyl-8-(4,6-diisopropylpyrimidin-5-yl)-11-fluoro-10-(2-fluoro-6-hydroxyphenyl)-2-methyl-6-(methyl-d3)-2,3,4,4a,6,8-hexahydro-1H-pyrazino[1′,2′:4,5]pyrazino[2,3-c][1,8]naphthyridin-5,7-dione] the IC50 [1] was > 30000 nM, the IC50 [2] was 11 nM and the IC50 [3] was 88 nM. It also gave an IC50 [4] of 34 nM.
With `[2H]C([2H])([2H])N1C(=O)[C@H]2CN(C(=O)C=C)[C@H](C)CN2c2c1c(=O)n(-c1c(C(C)C)ncnc1C(C)C)c1nc(-c3c(F)cccc3OC)c(F)cc21` [Compound Z44a, (2R,4aR)-3-acryloyl-8-(4,6-diisopropylpyrimidin-5-yl)-11-fluoro-10-(2-fluoro-6-methoxyphenyl)-2-methyl-6-(methyl-d3)-2,3,4,4a,6,8-hexahydro-1H-pyrazino[1′,2′:4,5]pyrazino[2,3-c][1,8]naphthyridin-5,7-dione] the IC50 [1] was 9240 nM, the IC50 [2] was 24 nM and the IC50 [3] was 170 nM. For the same compound, the IC50 [4] was 103 nM.
`C=CC(=O)N1C[C@@H]2C(=O)Nc3c(c4cc(F)c(-c5c(O)cccc5F)nc4n(-c4c(C(C)C)ncnc4C(C)C)c3=O)N2C[C@H]1C` [Compound Z45, (2R,4aR)-3-acryloyl-8-(4,6-diisopropylpyrimidin-5-yl)-11-fluoro-10-(2-fluoro-6-hydroxyphenyl)-2-methyl-2,3,4,4a,6,8-hexahydro-1H-pyrazino[1′,2′:4,5]pyrazino[2,3-c][1,8]naphthyridin-5,7-dione] was tested, and the IC50 [1] was > 30000 nM, the IC50 [2] was 13 nM and the IC50 [3] was 122 nM. The IC50 [4] was 48 nM.
`C=CC(=O)N1C[C@@H]2C(=O)N(C)c3c(c4cc(F)c(-c5c(O)cccc5F)nc4n(-c4c(C)cc(C)nc4C(C)C)c3=O)N2C[C@H]1C` [Compound Z46] was tested, and the IC50 [1] was 10300 nM, the IC50 [2] was 12 nM and the IC50 [3] was 224 nM. The IC50 [4] was 68 nM.
